Assay results published in article PMC10491346, “Enzyme Mechanistic Studies of NMA1982, a Protein Tyrosine Phosphatase and Potential Virulence Factor in Neisseria meningitidis” (Research Square, 2023).

Target: T1, NMA1982 (Neisseria meningitidis, UniProt A1KVD0)
T1 construct: gene NMC1647
Experiment: biochemical

T1 sequence (A1KVD0 entry or part of it): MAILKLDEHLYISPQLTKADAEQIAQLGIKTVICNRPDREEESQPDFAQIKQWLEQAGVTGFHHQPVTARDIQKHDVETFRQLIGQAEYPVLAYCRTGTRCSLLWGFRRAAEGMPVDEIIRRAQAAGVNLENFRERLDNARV

Structure (SMILES): [O]=[V]([OH])([OH])[OH] [sodium orthovanadate]
- IC50: 161 µM
